For this assay, the target named is tau (Homo sapiens, UniProt P10636). The assay can be described thus: MCE Phenols Library screening, tau biosensor cell seeding assay (AvZ). Type of assay: cell-based. The conditions noted are these: for Z repl 1 / Z Repl 2: Z score; for Z repl 1 / raw data 1: replicate 1; for Z Repl 2 / raw data 2: replicate 2.
[1] abbreviates: average Z score of the two replicates, MCE Phenols Library screen.
[2] abbreviates: average puncta of the two replicates.
Where [3] appears, read: average Z score of the two replicates, tau biosensor seeding, MCE Phenols Library screen.
[4] abbreviates: average Z score of the two replicates, tau seeding.
[5] abbreviates: average Z score of two replicates, Phenols Library screen.

Chain of tau (P10636 623-695 limits assumed): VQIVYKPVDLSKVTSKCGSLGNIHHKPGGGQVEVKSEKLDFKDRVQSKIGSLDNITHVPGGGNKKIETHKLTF

In the case of `O=c1cc(-c2ccc(O)cc2)oc2cc(O)c([C@@H]3O[C@H](CO)[C@@H](O)[C@H](O)[C@H]3O[C@@H]3OC[C@H](O)[C@H](O)[C@H]3O)c(O)c12` [Isovitexin 2''-O-arabinoside], the “Z repl 1” value was -0.906 and the “Z Repl 2” value was -0.245. For the same compound, the “av Z” value under setting [1] is given as -0.575. Further, the av puncta under setting [2] was found to be 12810.9. In addition, under “puncta”, the “raw data 1” value turned out to be 15471.3 and the “raw data 2” value is reported as 10150.6.

For `O=c1cc(-c2ccc(O)cc2)oc2cc(O)c([C@@H]3O[C@H](CO)[C@@H](O)[C@H](O)[C@H]3O)c(O)c12` [Isovitexin], the “Z repl 1” value is 0.953 and the “Z Repl 2” value is reported as 1.769. Moreover, under setting [3], the “av Z” value stood at 1.361. For the same compound, the av puncta (average of raw data 1 and 2) is 34727.5. Further, under “puncta”, the “raw data 1” value amounted to 37791.5 and the “raw data 2” value is 31663.6.

On to `COc1cc(-c2cc(=O)c3c(O)c(OC)c(O)cc3o2)ccc1O` [Jaceosidin], for which the “Z repl 1” value was determined as 1.473 and the “Z Repl 2” value was 0.443. Further, the “av Z” value under setting [3] is 0.958. For the same compound, the av puncta (average of raw data 1 and 2) stood at 30766.9. Also, where the note is “puncta”, the “raw data 1” value was found to be 44034.1 and the “raw data 2” value was 17499.7.

On to `COc1cc2c(cc1O)CC[n+]1cc3c(OC)c(OC)ccc3cc1-2.[Cl-]` [Jatrorrhizine (chloride)], for which the “Z repl 1” value is 0.505 and the “Z Repl 2” value was -0.062. The “av Z” value under setting [4] came to 0.221. This compound came in with an av puncta (average of raw data 1 and 2) of 22254. Also, where the note is “puncta”, the “raw data 1” value is 32409.6 and the “raw data 2” value is 12098.4.

Take `COc1ccc(CCO[C@@H]2O[C@H](CO[C@@H]3O[C@H](CO)[C@H](O)[C@H](O)[C@H]3O)[C@@H](OC(=O)/C=C/c3ccc(O)c(OC)c3)[C@H](O[C@@H]3O[C@@H](C)[C@H](O)[C@@H](O)[C@H]3O)[C@H]2O)cc1O` [Jionoside B1]: the “Z repl 1” value was 0.183 and the “Z Repl 2” value is -0.42. Moreover, the “av Z” value under setting [5] is -0.118. Besides, where the note is “average of raw data 1 and 2”, the av puncta is 18414.7. Under “puncta”, the “raw data 1” value was found to be 28546.2 and the “raw data 2” value was determined as 8283.25.

As to `COc1ccc(-c2oc3cc(O)cc(O)c3c(=O)c2O)cc1` [Kaempferide], the “Z repl 1” value is on record as -0.102 and the “Z Repl 2” value is reported as -1.05. Moreover, the “av Z” value under setting [1] is on record as -0.576. For the same compound, the av puncta under setting [2] turned out to be 13337. Where the note is “puncta”, the “raw data 1” value came to 25119.1 and the “raw data 2” value is on record as 1554.77.

For `C[C@@H]1O[C@@H](Oc2cc(O)c3c(=O)c(O[C@@H]4O[C@@H](C)[C@H](O)[C@@H](O)[C@H]4O)c(-c4ccc(O)cc4)oc3c2)[C@H](O)[C@H](O)[C@H]1O` [Kaempferitrin], the “Z repl 1” value is recorded as -1.403 and the “Z Repl 2” value was -0.446. Also, the “av Z” value under setting [1] was -0.924. For the same compound, under “average of raw data 1 and 2”, the av puncta is on record as 8757.09. Also, where the note is “puncta”, the “raw data 1” value is listed as 9507.36 and the “raw data 2” value stood at 8006.82.

In the case of `O=C(O)[C@H]1O[C@@H](Oc2c(-c3ccc(O)cc3)oc3cc(O)cc(O)c3c2=O)[C@H](O)[C@@H](O)[C@@H]1O` [Kaempferol 3-O-?-D-glucuronide], the “Z repl 1” value is 0.499 and the “Z Repl 2” value was 0.597. For the same compound, the “av Z” value under setting [4] was found to be 0.548. The same compound gave an av puncta (average of raw data 1 and 2) of 25744.8. Also, under “puncta”, the “raw data 1” value worked out at 32345.4 and the “raw data 2” value is on record as 19144.3.

For the compound `O=c1c(O[C@@H]2O[C@H](CO[C@@H]3O[C@H](CO)[C@@H](O)[C@H](O)[C@H]3O)[C@@H](O)[C@H](O)[C@H]2O)c(-c2ccc(O)cc2)oc2cc(O)cc(O)c12` [Kaempferol 3-O-gentiobioside], the “Z repl 1” value came to 0.421 and the “Z Repl 2” value is recorded as -0.356. The “av Z” value under setting [5] was 0.032. Also, where the note is “average of raw data 1 and 2”, the av puncta turned out to be 20180.4. Also, for the setting “puncta”, the “raw data 1” value came to 31398.7 and the “raw data 2” value is 8962.19.

On to `O=c1c(O[C@@H]2O[C@H](CO)[C@@H](O)[C@H](O)[C@H]2O[C@@H]2O[C@H](CO)[C@@H](O)[C@H](O)[C@H]2O)c(-c2ccc(O)cc2)oc2cc(O)cc(O)c12` [Kaempferol 3-O-sophoroside], for which the “Z repl 1” value is -0.587 and the “Z Repl 2” value was 0.035. The “av Z” value under setting [1] is -0.276. The av puncta under setting [2] amounted to 16225.3. Further, under “raw puncta”, the “raw data 1” value was 19307.9 and the “raw data 2” value is given as 13142.7.

For `C[C@@H]1O[C@@H](O[C@H]2[C@H](Oc3c(-c4ccc(O)cc4)oc4cc(O)cc(O)c4c3=O)O[C@H](CO)[C@@H](O)[C@@H]2O)[C@H](O)[C@H](O)[C@H]1O` [Kaempferol 3-neohesperidoside], the “Z repl 1” value is listed as -1.386 and the “Z Repl 2” value is -0.619. Also, the “av Z” value under setting [1] is listed as -1.002. The av puncta (average of raw data 1 and 2) amounted to 7935.47. Where the note is “puncta”, the “raw data 1” value is 9710.86 and the “raw data 2” value is 6160.09.

Consider `C[C@H]1O[C@@H](O[C@H]2[C@H](Oc3c(-c4ccc(O)cc4)oc4cc(O)cc(O)c4c3=O)O[C@@H](CO)[C@H](O)[C@H]2O)[C@H](O)[C@@H](O)[C@@H]1O` [Kaempferol-3-O-glucorhamnoside], for which the “Z repl 1” value is on record as -0.601 and the “Z Repl 2” value is listed as -1.001. For the same compound, the “av Z” value under setting [1] is -0.801. Moreover, for the setting “average of raw data 1 and 2”, the av puncta came to 10603.6. In addition, under “puncta”, the “raw data 1” value came to 19130.8 and the “raw data 2” value is recorded as 2076.39.

`O=c1c(O)c(-c2ccc(O)cc2)oc2cc(O)cc(O)c12` [Kaempferol]: the “Z repl 1” value was -0.004 and the “Z Repl 2” value is -0.903. The “av Z” value under setting [1] is given as -0.454. The av puncta under setting [2] is reported as 14707.1. For the setting “raw puncta”, the “raw data 1” value is 26297.7 and the “raw data 2” value was determined as 3116.65.

Take `O=C(CCc1ccc(O)c(O)c1)NCCCNCCCCNCCCNC(=O)CCc1ccc(O)c(O)c1` [Kukoamine A]: the “Z repl 1” value is -0.156 and the “Z Repl 2” value is -0.952. Besides, the “av Z” value under setting [1] is reported as -0.554. The compound further returned an av puncta under setting [2] of 13541.2. Further, under “puncta”, the “raw data 1” value was 24479.5 and the “raw data 2” value worked out at 2602.81.

`NCCCN(CCCCNCCCNC(=O)CCc1ccc(O)c(O)c1)C(=O)CCc1ccc(O)c(O)c1` [Kukoamine B]: the “Z repl 1” value is recorded as -1.263 and the “Z Repl 2” value is -0.72. Further, the “av Z” value under setting [1] is -0.992. Further, the av puncta (average of raw data 1 and 2) turned out to be 8130.71. Besides, for the setting “puncta”, the “raw data 1” value stood at 11188.8 and the “raw data 2” value was determined as 5072.6.

In the case of `OC[C@H]1O[C@@H](Oc2cc3c(O)cc(O)cc3[o+]c2-c2ccc(O)c(O)c2)[C@H](O)[C@@H](O)[C@@H]1O.[Cl-]` [Kuromanin (chloride)], the “Z repl 1” value is -0.084 and the “Z Repl 2” value is -0.888. Besides, the “av Z” value under setting [1] is recorded as -0.486. Also, the av puncta under setting [2] was determined as 14314.9. Further, under “puncta”, the “raw data 1” value is 25345.8 and the “raw data 2” value was found to be 3284.04.

`C=C(C)[C@H](CC=C(C)C)Cc1c(O)cc(O)c2c1O[C@H](c1ccccc1O)CC2=O` [Kushenol A]: the “Z repl 1” value is on record as 0.183 and the “Z Repl 2” value came to 1.024. Moreover, under setting [4], the “av Z” value is 0.603. Where the note is “average of raw data 1 and 2”, this compound came in with an av puncta of 26122.8. Besides, where the note is “puncta”, the “raw data 1” value is listed as 28541 and the “raw data 2” value was determined as 23704.6.

Turning to `C=C(C)[C@H](CC=C(C)C)Cc1c(O)cc(OC)c2c1O[C@H](c1ccc(O)cc1O)[C@@H](O)C2=O` [Kushenol I], the “Z repl 1” value was 0.564 and the “Z Repl 2” value was -0.398. In addition, the “av Z” value under setting [5] stood at 0.083. The av puncta (average of raw data 1 and 2) was found to be 20816.6. Also, for the setting “puncta”, the “raw data 1” value is 33117.8 and the “raw data 2” value was 8515.32.

On to `CC(C)=CCc1c(-c2ccc(O)cc2O)oc2c([C@H]3C=C(C)C[C@@H](c4ccc(O)cc4O)[C@@H]3C(=O)c3ccc(O)cc3O)c(O)cc(O)c2c1=O` [Kuwanon G], for which the “Z repl 1” value worked out at 0.063 and the “Z Repl 2” value stood at 0.629. Moreover, under setting [4], the “av Z” value was determined as 0.346. Also, the av puncta (average of raw data 1 and 2) worked out at 23290.6. Where the note is “puncta”, the “raw data 1” value was 27102.4 and the “raw data 2” value is on record as 19478.8.

In the case of `CC(C)=CCc1c(O)ccc(C(=O)[C@@H]2[C@@H](c3c(O)cc(O)c4c(=O)c(CC=C(C)C)c(-c5ccc(O)cc5O)oc34)C=C(C)C[C@H]2c2ccc(O)cc2O)c1O` [Kuwanon H], the “Z repl 1” value is recorded as -0.22 and the “Z Repl 2” value came to 0.532. For the same compound, the “av Z” value under setting [4] is reported as 0.156. For the setting “average of raw data 1 and 2”, the av puncta stood at 21077.1. In addition, under “puncta”, the “raw data 1” value was 23703 and the “raw data 2” value is given as 18451.1.

As for `N[C@@H](Cc1c[nH]c2ccc(O)cc12)C(=O)O` [L-5-Hydroxytryptophan], the “Z repl 1” value came out at 0.279 and the “Z Repl 2” value is listed as -0.269. Besides, the “AvZ (average z score of seeding, SDs from the mean level of seeding)” value (10 μM phenol in cell cultures, AD brain homogenate preincubated 16 hours, two biological replicates, positive = catalyzes seeding, negative = inhibits) is reported as 0.005. The compound further gave an av puncta (average of raw data 1 and 2) of 19792.1. For the same compound, where the note is “puncta”, the “raw data 1” value came to 29696.2 and the “raw data 2” value stood at 9887.95.

Consider `COc1cc2c(cc1O)-c1c(OC)c(O)cc3c1[C@H](C2)NCC3` [Laetanine], for which the “Z repl 1” value was -0.508 and the “Z Repl 2” value is on record as -0.181. Besides, under setting [1], the “av Z” value was -0.344. The av puncta under setting [2] was 15544.8. Where the note is “raw puncta”, the “raw data 1” value turned out to be 20251.6 and the “raw data 2” value worked out at 10838.1.

Take `CC[C@@H](C(=O)[C@@H](C)[C@@H](O)[C@H](C)CCc1ccc(C)c(O)c1C(=O)O)[C@H]1O[C@](CC)([C@H]2CC[C@](O)(CC)[C@H](C)O2)C[C@@H]1C` [Lasalocid]: the “Z repl 1” value is 0.41 and the “Z Repl 2” value is reported as -0.218. Further, the “av Z” value under setting [5] was 0.096. For the setting “average of raw data 1 and 2”, this compound registered an av puncta of 20851.6. Further, for the setting “puncta”, the “raw data 1” value was determined as 31268.6 and the “raw data 2” value is given as 10434.5.

The record behind these values is publication PMC11784839, “Monoaminergic neurotransmitters are bimodal effectors of tau aggregation” (Science Advances, 2025).
